# Data published in patent publication US10752647B2, “N-phosphonoxymethyl prodrugs of hydroxyalkyl thiadiazole derivatives” (DAIICHI SANKYO COMPANY, LIMITED, priority 2017, dated 2020).
# Read-outs that look alike come from different tables or passages of the source.
# Experiments:
# [1] = Solubility in Japanese Pharmacopeia First Fluid (JP1) and Second Fluid (JP2); type: physicochemical; settings: thermodynamic from solid, room temperature
# Method: Method of Testing Solubility in Water and Neutral Buffer A 10 mmol/L solution of the test compound was prepared in DMSO and dispensed 100 μL of 10 mmol/L DMSO stock solutions into labeled glass tubes in duplicate, one for Japanese Pharmacopeia First Fluid (JP1) and second for Japanese Pharmacopeia Second Fluid (JP2). After evaporation of DMSO from each tube, 500 μL of JP1 and JP2 fluid were added in each tube, respectively. These tubes were sonicated for 1 minute and placed on shaker for 30 minutes with an interval of 30 seconds at every 5 minute. Tubes were placed in dark at room temperature for 1 hour and solution was filtered through membrane filter. The filtrate was diluted 2-fold and 10-fold. The resulting test solutions was analyzed and quantified against the standards using UPLC (standard preparation-10 mmol/L solution in DMSO is serially diluted with 50% aqueous acetonitrile solution to prepare 2 solutions; 100 μmol/L standard solution and 5 μmol/L standard solutions).
# [2] = test system: Clostridium difficile 2009155, a NAP1/027 strain; assay: Hamster CDI model; type: in vivo; settings: 0.3 mg/kg/day for 5 days
# Method: d) Method for Testing Therapeutic Effect of Compounds in Hamster CDI Model
# The in vivo efficacy of Compound No. 1 was evaluated in a hamster CDI model caused by Clostridium difficile 2009155, a NAP1/027 strain. The Syrian hamsters (7-9 weeks old, National Centre for Laboratory Animal Sciences, National Institute Nutrition, Hyderabad, India.) were acclimatized at least 7 days prior the experiment. Hamsters primed with a single subcutaneous injection of clindamycin (30 mg/kg) 1 day prior to infection. Hamsters were infected by oral gavage with 1 mL of spore suspension (2-3×10^5) prepared in PBS. The test compounds were prepared using the 0.25 w/v % Methyl Cellulose Solution for oral administration and 10% HP ß-CD for SC administration and treatment was started 6 h post infection at an interval of 24 h for 5 days. Hamsters were administered a dose of 0.03-0.3 mg/kg/day for 5 days. The death and survival time of the hamsters treated with test compound administered group and non-treated group (vehicle-control) were recorded once daily for 35 days and were compared. A change in the survival time was used as an index of therapeutic effect.
# [3] = Solubility of parent compounds and prodrugs in phosphate buffer; type: physicochemical; settings: aqueous buffer, thermodynamic from solid; parent compound, phosphate buffer, 25° C., more than 4 weeks, pH 7.0
# Method: Parent compounds: About 5 mg of parent compounds (biologically active forms of prodrugs) were added to 950 μL of phosphate buffer, and mixed vigorously for 1 hour at 25° C. Then, these samples were stored at 25° C. for more than 4 weeks and filtered to remove undissolved parent compounds. Next, these solutions were diluted with 50% aqueous acetonitrile solution. The resulting test solutions were assayed by HPLC. Prodrugs: About 30 mg of prodrugs were added to 120 μL of phosphate buffer, and mixed vigorously for 1 hour at 25° C. After shaking, pH of these solutions were adjusted at pH 7.0 by 1 mol/L NaOH solution. Then, the total volume were adjusted to 280 μL with purified water. Next, these solutions were stored at 25° C. for more than 4 weeks and filtered to remove undissolved compounds. These solutions were diluted with 50% aqueous acetonitrile solution. The resulting test solutions were assayed by HPLC.
# [4] = Conversion efficiency / PK profile after IV dose in rats (Compounds No. 5 and No. 7); type: in vivo; settings: Rat, plasma, parent compound IV 1 mg/kg; read-out: Parent compound AUCinf
# Method: Determination of conversion efficiency of Compound No. 5 and Compound No. 7 was conducted in rats. Animals were divided in two groups with two animals in each group. One group received an IV dose of prodrug and the other group received an IV dose of parent compound. Serial blood sampling was carried out at 0.08, 0.25, 0.5, 1, 2, 4, 7, and 24 h post dose from both of the animal groups. Blood samples were centrifuged to harvest plasma. Plasma samples of prodrug administered animals were simultaneously analyzed for both analytes (prodrug and parent compound) using LC-MS/MS. AUC of plasma concentrations versus time profiles were calculated in WinNonlin software and percentage conversion efficiency was determined using the formula: Percentage conversion efficiency=(AUCiv of parent compound from prodrug administered samples)/(AUCiv of parent compound from parent compound administered samples)/(molecular weight of parent compound)×(molecular weight of prodrug)×100. PK profile of Compound No. 5 and Compound No. 7 in rats are depicted in Table 7.
# [5] = Conversion efficiency / PK profile after IV dose in rats (Compounds No. 1 and No. 2); type: in vivo; settings: 15.3 mg/kg; Rat, plasma, prodrug IV 15.300 mg/kg, analyte prodrug; read-out: Compound No. 1 AUCinf
# Method: Method of Testing Conversion Efficiency Determination of conversion efficiency of Compound No. 1 and Compound No. 2 was conducted in rodents (mice and rats) and non-rodents (monkeys and dogs). Animals were divided in two groups with two animals in each group. One group received an intravenous (IV) dose of prodrug and the other group received an IV dose of parent compound. The dose of prodrug was taken as molar equivalent dose of parent compound. Serial blood sampling was carried out at 0.083, 0.33, 1, 2, 4, 8 and 24 h post IV dose from both the animal groups. Blood samples were centrifuged to harvest plasma. Plasma samples were stored at −80° C. until analysis. Plasma samples of prodrug administered animals were simultaneously analyzed for both analytes (prodrug and parent compound) using LC-MS/MS. Area under the curve (AUC) of plasma concentrations versus time profiles were calculated in WinNonlin software and percentage conversion efficiency was determined using the formula: Percentage conversion efficiency=(AUCiv of parent compound (from prodrug administered samples)×100/(AUCiv of parent compound (from parent compound administered samples). PK profile of Compounds No. 1 and No. 2 in rats, dogs and monkeys are depicted in Table 5 and 6, respectively (also shown in FIGS. 1 and 2).
# MRSA 562 = assay: Mouse lung infection model by MRSA 562 (neutropenic Swiss mice); type: in vivo, Staphylococcus aureus
# Method: a) Method for Testing Therapeutic Effect of Compounds Using Mouse Lung Infection Model by MRSA 562
# Mice were rendered neutropenic with two intra-peritoneal injections (IP) of cyclophosphamide on day −4 and day −1 prior to infection at the dose rate of 150 mg and 100 mg per kg body weight. Overnight grown MRSA 562 was diluted 1:10 in fresh Brain Heart Infusion broth and mixed 1:1 with 5% hog mucin. The bacterial suspension (3.16×10^6/mouce/50 μL) was then inoculated to each pre-anaesthetized mice (xylazine 5 mg/kg and ketamine 100 mg/kg mixture) into the nares of Swiss mice (4 to 6-week-old, Vivo Biotech Limited, Hyderabad, India), n=5 mice per group). The test compound was administered to the mice once, twice and four times at an interval of 24, 12 and 6 hr, respectively. The number of bacteria in the lungs was determined in the non-treated group immediately before initial administration of the test compound (pre-control) and in the non-treated group (post-control) and the test compound-administered group on the next day of administration of the test compound and infection. A change in the number of bacteria in the lungs was used as an index of therapeutic effect.
# MRSA 02541 [6] = assay: Neutropenic mouse thigh infection model, MRSA 02541; type: in vivo, Staphylococcus aureus
# Method: (§1) (b) Method for Testing Therapeutic Effect of Compounds Against MRSA 02541 and VRE IV258 21076 Using Neutropenic Mouse Thigh Infection Model
# (§2) Swiss Webster mice of 4 to 6-week-old were used for this experiments (Vivo Biotech Limited, Hyderabad, India, n=5 mice per group). Mice were rendered neutropenic as described above. Overnight grown culture of MRSA 02541 on Mueller-Hinton broth (MHB) was adjusted to 0.5 Mac Farland. The suspension was then diluted 1:100 in fresh MHB and 100 μl was injected intra-muscularly in the right thigh muscles of the mice (n=5/group). In case of VRE IV 258-21076 culture was mixed with 10% hog mucin in 1:1 proportion. The bacterial inocula were confirmed by quantitative culture analyses and found to be 3×10^6 CFU for MRSA and 2×10^6 for VRE IV258-21076 per mL. Treatment started 2 h post infection. The test compound was administered to the mice one to eight times at an interval of 3 to 24 hr. The number of bacteria in the thigh muscle was counted for the non-treated group immediately before initial administration of the test compound (pre-control), for the non-treated group (post-control) and for the test compound-administered group on the next day of administration of the test compound and infection. A change in the number of bacteria in the thigh was used as an index of therapeutic effect.
# VRE IV258 21076 = assay: Neutropenic mouse thigh infection model, VRE IV258 21076; type: in vivo, Enterococcus
# Method: as §1, §2
# MRSA 02541 [7] = assay: Neutropenic Sprague Dawley rat thigh infection model, MRSA 02541; type: in vivo, Staphylococcus aureus; settings: for log10 kill (number of bacteria in the thigh): 25 mg/kg, IV qid
# Method: c) Method for Testing Therapeutic Effect of Compounds Against MRSA 02541 Using Neutropenic Sprague Dawley Rat Thigh Infection Model
# Sprague Dawley rats of 4 to 6-week-old were used for this experiments (Vivo Biotech Limited, Hyderabad, India, n=4 rats per group). Rats were rendered neutropenic by intraperitoneal injection of cyclophosphamide. Overnight grown culture of MRSA 02541 in MHB was adjusted to 0.5 Mac Farland. The suspension was then diluted 1:10 in fresh MHB and 200 μl was injected intra-muscularly in the right thigh muscles of the rat. The bacterial inocula were confirmed by quantitative culture analyses and found to be 6×10^6 CFU per rat thigh muscle. Treatment started 2 h post infection. The test compound was administered to the rat four times at an interval of 6 hr. The number of bacteria in the thigh muscle was counted for the non-treated group immediately before initial administration of the test compound (2 h pre-control), for the non-treated group (26 h post-control) and for the test compound-administered group on the next day of administration of the test compound and infection. A change in the number of bacteria in the thigh was used as an index of therapeutic effect.
# animal infection models = settings: compound of WO 2009/084614; cited from earlier work
# [8] = pH 1.2, simulated gastric fluid, Japanese Pharmacopeia First Fluid (JP1), read-out: Solubility JP1
# [9] = pH 6.8, aqueous buffer, Japanese Pharmacopeia Second Fluid (JP2), read-out: Solubility JP2
smiles,measurement,setting,value
"CCc1nc(C(=O)N[C@@H]2CCN(c3nnc(C(C)(C)O)s3)C[C@@H]2OC)n(COP(=O)(O)O)c1Cl [Compound No. 2, [5-Chloro-4-ethyl-2-({(3S,4R)-1-[5-(2-hydroxypropan-2-yl)-1,3,4-thiadiazol-2-yl]-3-methoxypiperidin-4-yl}carbamoyl)-1H-imidazol-1-yl]methyl dihydrogen phosphate]",solubility at 30 min,[1]; [8],> 1120 µg/mL
same,solubility at 30 min,[1]; [9],> 1100 µg/mL
same,Survival on day 35,[2],100%
"CCc1[nH]c(C(=O)N[C@@H]2CCN(c3nnc(C(C)O)s3)C[C@@H]2OC)nc1Cl (stereo partly drawn) [Compound D, 4-chloro-5-ethyl-N-{(3S,4R)-1-[5-(1-hydroxyethyl)-1,3,4-thiadiazol-2-yl]-3-methoxypiperidin-4-yl}-1H-imidazole-2-carboxamide]",solubility,[3],752 µg/mL
same,AUC(0-inf),[4],3110 ng·h/mL
"CCc1[nH]c(C(=O)N[C@@H]2CCN(c3nnc([C@H](O)CO)s3)C[C@@H]2OC)nc1Cl [Compound C, 4-chloro-N-[(3S,4R)-1-{5-[(1R)-1,2-dihydroxyethyl]-1,3,4-thiadiazol-2-yl}-3-methoxypiperidin-4-yl]-5-ethyl-1H-imidazole-2-carboxamide]",solubility,[3],2440 µg/mL
same,AUC(0-inf),[4],990 ng·h/mL
"CCc1c(Cl)nc(C(=O)N[C@@H]2CCN(c3nnc(C(C)(C)O)s3)C[C@@H]2OC)n1COP(=O)(O)O [Compound No. 1, [4-Chloro-5-ethyl-2-({(3S,4R)-1-[5-(2-hydroxypropan-2-yl)-1,3,4-thiadiazol-2-yl]-3-methoxypiperidin-4-yl}carbamoyl)-1H-imidazol-1-yl]methyl dihydrogen phosphate]",solubility at 30 min,[1]; [8],> 1280 µg/mL
same,solubility at 30 min,[1]; [9],> 1320 µg/mL
same,AUC(0-inf),[5],270 ng·h/mL
same,log10 kill (number of bacteria in the lungs),"MRSA 562; 6.25 mg/kg/dose, SC q6h, compared to 1 hour pre-control",1.33 log10
same,log10 kill (number of bacteria in the lungs),"MRSA 562; 6.25 mg/kg/dose, SC q6h, compared to 25 hour post control",2.52 log10
same,log10 kill (number of bacteria in the lungs),"MRSA 562; 12.5 mg/kg/dose, SC, q6h, compared to 1 hour pre-control",1.76 log10
same,log10 kill (number of bacteria in the lungs),"MRSA 562; 12.5 mg/kg/dose, SC, q6h, compared to 25 hour post control",2.95 log10
same,Therapeutic effect (change in the number of bacteria in the lungs),"MRSA 562; mouse lung infection, MRSA 562",exhibited the therapeutic effect
same,Cidal potential (number of bacteria in the thigh),"MRSA 02541 [6]; 200 mg/kg/dose q24h, 100 mg/kg/dose q24h, and 50 mg/kg/dose q24h and their fractions irrespective of dosing schedule",cidal potential
same,Therapeutic effect (change in the number of bacteria in the thigh),"MRSA 02541 [6]; neutropenic mouse thigh, MRSA 02541",exhibited the therapeutic effect
same,Cidal potential (number of bacteria in the thigh),"VRE IV258 21076; fractionated doses 50 mg/kg/dose q12h, 25 mg/kg/dose q6h, 12.5 mg/kg/dose q3h",cidal potential
same,Therapeutic effect (change in the number of bacteria in the thigh),"VRE IV258 21076; neutropenic mouse thigh, VRE IV258 21076",exhibited the therapeutic effect
same,log10 kill (number of bacteria in the thigh),MRSA 02541 [7]; compared to 2 hours pre-control,1 log10
same,log10 kill (number of bacteria in the thigh),MRSA 02541 [7]; compared to 26 hours post control,2.99 log10
same,Therapeutic effect (change in the number of bacteria in the thigh),"MRSA 02541 [7]; neutropenic rat thigh, MRSA 02541",exhibited the therapeutic effect
same,Survival on day 35,[2],100%
CCO[C@H]1CN(c2nncs2)CC[C@H]1NC(=O)c1nc(Cl)c(CC)[nH]1 [Compound No. 150],Efficacy in animal infection models,animal infection models,not being efficacious
